In patent publication US12285425B2, “Glucocorticoid receptor modulators to treat cervical cancer” (Corcept Therapeutics, Inc., priority 2017, dated 2025):

Legend:
[1] = test system: MDA-MB-231 cells; assay: Triple negative breast cancer (TNBC) mouse xenograft model, CORT125134 with paclitaxel; type: in vivo, mice
Protocol: MDA-MB-231 cells (10 million cells per mouse) were injected orthotopically in the right mammary fat pad in groups of female Balb/c nude mice. When the tumors reached a volume of 100-200 mm^3, the mice were randomized into groups of 10 and treatment was initiated. Mice were treated as follows: group 1 received vehicle daily, group 2 received paclitaxel 5 mg/kg i.v. every 4 days, group 3 received paclitaxel 5 mg/kg i.v. every 4 days and CORT125134 30 mg/kg p.o. daily. Tumor volumes were measured 3 times a week in 2 dimensions using a caliper and the volume expressed in mm^3 using the formula V=0.5 a×b2 where a and b are the long and short diameters of the tumor, respectively. Dosing was continued for 28 days, but any mouse in poor condition or with a tumor exceeding 3000 mm^3 was terminated. For comparison between two groups an independent sample t-test was used; for comparison among three or more groups a one-way ANOVA was performed followed by multiple comparison procedures. A p-value <0.05 was considered to be statistically significant. The effect of CORT125134 in combination with paclitaxel in a triple negative breast cancer (TNBC) mouse xenograft model is shown in FIG. 2. Data represent mean+SEM.

[2] = test system: SK-OV-3 cells; assay: Ovarian cancer mouse xenograft model, CORT125134 with gemcitabine/carboplatin; type: in vivo, mice
Protocol: CORT125134 was administered intraperitoneally (i.p.) on days 43, 44, 50 and 51, and gemcitabine/carboplatin was administered i.p. on days 44 and 51. Data represent mean values. SK-OV-3 cells (5 million cells per mouse) were injected in the right flank of female Balb/c nude mice. When tumors reached a volume of 200 mm^3 the mice were randomized into groups of 10 and treatment was initiated. Mice were treated as follows: group 1 received vehicle on dosing days 1, 2, 8 and 9, group 2 received gemcitabine (80 mg/kg i.p.) and carboplatin (15 mg/kg i.p.) on dosing days 2 and 9 and group 3 received gemcitabine/carboplatin in the same regimen as group 2, +CORT125134 (20 mg/kg i.p.) on dosing days 1, 2, 8 and 9. Tumor volumes were measured 3 times a week and tumor volumes were calculated as detailed above. Any mouse in poor condition or with a tumor exceeding 2000 mm^3 was terminated. The results were analyzed as indicated in Example 2 above.

[3] = test system: human HeLa cervical cancer cells; assay: Implanted HeLa cervical cancer tumor growth in mice, CORT125134 and paclitaxel; type: in vivo
Protocol: Suspensions of human HeLa cervical cancer cells were injected subcutaneously into the right flank of 5-6 week old immunosuppressed female mice (BALB/c nude), five million cells per mouse. Tumors were allowed to grow until they reached a volume of 100-200 mm^3. Mice were then grouped into five groups, ten (10) per group. Group 1 was dosed with the paclitaxel vehicle (sterile saline) intravenously (i.v.) every 4 days and the CORT125134 vehicle orally (p.o.) (10% DMSO, 0.1% Tween 80 and 89.9% HPMC (0.5%), 10 ml/kg) every 4 days. Group 2 was dosed with paclitaxel (7.5 mg/kg) i.v. every 4 days. Group 3 was dosed with paclitaxel i.v. every 4 days and with CORT125134 (30 mg/kg) p.o. the day before the administration of paclitaxel and the same day as the administration of paclitaxel. Group 4 received paclitaxel (15 mg/kg) i.v. every 4 days. Group 5 received paclitaxel (15 mg/kg) i.v. every 4 days and CORT125134 (30 mg/kg) p.o. the day before and the day of paclitaxel (15 mg/kg) i.v. administration.
The longest (L) and shortest (S) diameters of the tumors were measured three times a week with electronic calipers and tumor volume was calculated using the formula for an ellipsoid sphere: S^2×L×(0.5). The tumor growth data are shown in FIG. 1, in which the mean tumor volume for each group of mice is plotted against the number of days of tumor growth since initiation of the treatment. All treatments provide benefit compared to vehicle alone.

[4] = test system: cervical cancer; assay: Treating a patient having cervical cancer with SGRM and a chemotherapeutic agent; type: in vivo, human; conditions: CORT125134 200 mg once a day for eight weeks with nab-paclitaxel 80 mg per square meter i.v. days 1, 8, 15 of 28-day cycle; one patient
Protocol: A patient complains of upper abdomen pain. They are experiencing loss of appetite, nausea and vomiting episodes, and significant weight loss. […] The suspected tumor is confirmed by histological analysis to be a cancerous tumor. The patient is treated with CORT125134 at a dose of 200 mg once a day for eight weeks in combination with an intravenous infusion of nab-paclitaxel at a dose of 80 mg per square meter of body-surface area as an intravenous infusion over 30 minutes on days 1, 8, and 15 of every 28-day cycle. Tumor load is monitored using enhanced MRI before, during and after the treatment. The imaging indicate that tumor size is decreasing, and the reduction is more than 50% at the end of the treatment period.

[5] = test system: 22Rv1 cells; assay: Prostate cancer (CRPC) mouse xenograft model, CORT125134 with castration; type: in vivo; conditions: CORT125134 30 mg/kg p.o. daily for 21 days
Protocol: 22Rv1 cells (10 million cells per mouse) were injected in the right flank of male Balb/c nude mice. When the tumors reached a volume of 100-200 mm^3 the mice were randomized into groups of 10 and then 2 of the 3 groups were castrated. Treatment was initiated the day after castration as follows: group 1 (not castrated) received vehicle, group 2 (castrated) received vehicle, and group 3 (castrated) received CORT125134 30 mg/kg orally (p.o.) daily for 21 days. Tumor volumes were measured 3 times a week as described previously. Any mouse in poor condition or with a tumor exceeding 3000 mm^3 was terminated. The results were analyzed as indicated in Example 2 above. Data represent mean+SEM.

[6] = paclitaxel 5 mg/kg i.v. every 4 days + CORT125134 30 mg/kg p.o. daily
[7] = gemcitabine/carboplatin + CORT125134 20 mg/kg i.p.

| Structure (SMILES) | p, combination compared to paclitaxel alone [1, 6] | p, combination compared to vehicle treated mice [1, 6] | effect on tumor growth, combination of paclitaxel and CORT125134 ([1]; paclitaxel 5 mg/kg i.v. every 4 days + CORT125134 30 mg/kg p.o. daily, 28 days) | effect on tumor growth, combination of gemcitabine/carboplatin with CORT125134 ([2]; gemcitabine 80 mg/kg + carboplatin 15 mg/kg i.p. dosing days 2, 9 + CORT125134 20 mg/kg i.p. dosing days 1, 2, 8, 9) | p, combination compared to vehicle [2, 7] | p, combination compared with carboplatin/gemcitabine [2, 7] | p, tumor growth comparison Group 3 vs Group 5 ([3]; CORT125134 30 mg/kg + paclitaxel 15 mg/kg (Group 5) vs CORT125134 30 mg/kg + paclitaxel 7.5 mg/kg (Group 3)) | p, tumor growth comparison Group 2 vs Group 3 ([3]; CORT125134 30 mg/kg p.o. day before and day of paclitaxel + paclitaxel 7.5 mg/kg i.v. every 4 days (Group 3) vs paclitaxel 7.5 mg/kg alone (Group 2)) | p, tumor growth comparison Group 4 vs Group 5 ([3]; CORT125134 30 mg/kg p.o. day before and day of paclitaxel + paclitaxel 15 mg/kg i.v. every 4 days (Group 5) vs paclitaxel 15 mg/kg alone (Group 4)) | tumor growth, combination of paclitaxel and CORT125134 compared with paclitaxel alone ([3]; CORT125134 30 mg/kg p.o. with paclitaxel 7.5 or 15 mg/kg i.v., either dose of paclitaxel) | reduction of tumor size at the end of the treatment period (enhanced MRI) [4] | effect on tumor growth, CORT125134 in castrated mice compared to mice not castrated [5] | p, CORT125134 in castrated mice compared to mice not castrated [5] | p, castration and CORT125134 vs castration alone ([5]; castrated mice) | tumor growth, combination of castration and CORT125134 compared with castration alone ([5]; castrated mice) | p compared with vehicle treated mice, paclitaxel alone ([1]; paclitaxel 5 mg/kg i.v. every 4 days) | effect on tumor growth, paclitaxel alone ([1]; paclitaxel 5 mg/kg i.v. every 4 days, 28 days) | p, tumor growth comparison Group 1 vs Group 2 ([3]; paclitaxel 7.5 mg/kg i.v. every 4 days (Group 2) vs vehicle (Group 1)) | p, tumor growth comparison Group 1 vs Group 4 ([3]; paclitaxel 15 mg/kg i.v. every 4 days (Group 4) vs vehicle (Group 1)) |
| --- | --- | --- | --- | --- | --- | --- | --- | --- | --- | --- | --- | --- | --- | --- | --- | --- | --- | --- | --- |
| Cn1cc(S(=O)(=O)N2CCC3=Cc4c(cnn4-c4ccc(F)cc4)C[C@]3(C(=O)c3cc(C(F)(F)F)ccn3)C2)cn1 [CORT125134, (R)-(1-(4-fluorophenyl)-6-((1-methyl-1H-pyrazol-4-yl)sulfonyl)-4,4a,5,6,7,8-hexahydro-1H-pyrazolo[3,4-g]isoquinolin-4a-yl)(4-(trifluoromethyl)pyridin-2-yl)methanone] | < 0.05 | < 0.05 | significant inhibition of tumor growth | significant inhibition of tumor growth | < 0.001 | < 0.01 | 0.0009 | 0.008 | <0.0001 | more effective than paclitaxel alone | more than 50% | inhibited tumor growth | < 0.0001 | < 0.05 | more effective than castration alone |  |  |  |  |
| CC(=O)O[C@H]1C(=O)[C@@]2(C)[C@H]([C@H](OC(=O)c3ccccc3)[C@]3(O)C[C@H](OC(=O)[C@H](O)[C@@H](NC(=O)c4ccccc4)c4ccccc4)C(C)=C1C3(C)C)[C@]1(OC(C)=O)CO[C@@H]1C[C@@H]2O [paclitaxel, reference compound] |  |  |  |  |  |  |  |  |  |  |  |  |  |  |  | not significant | ineffective | 0.0281 | 0.0006 |
